From patent US12077503B2, “Substituted cyclic amides and their use as herbicides” (FMC CORPORATION, priority 2015, dated 2024) come the findings set out here.

Molecules are shown by their SMILES. Where two headings read alike, the source gives them in different places.

Holding throughout (type): in vivo
The subject of assay [1] is pigweed (Amaranthus retroflexus). As to the kind of experiment: Test A preemergence. Conditions: Amaranthus retroflexus, pre-emergence, 240 h; for pest or weed control at 125 g/ha: 125 g ai/ha; for pest or weed control at 500 g/ha: 500 g ai/ha.
Another assay concerns Kochia (Kochia scoparia). Nature of the assay: Test A preemergence. Conditions: Bassia scoparia, pre-emergence, 240 h; for pest or weed control at 125 g/ha: 125 g ai/ha; for pest or weed control at 500 g/ha: 500 g ai/ha. The method in brief: (§1)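 Ratings of 0 (no effect) to 100 (complete control) come from visual comparison with untreated controls roughly 10 d after treatment. Test chemicals, formulated in a non-phytotoxic solvent mixture with surfactant, were applied either as a preemergence directed soil spray on seeded soil or postemergence to one- to two-leaf plants 2 to 10 cm tall.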

For assay [2], the system named is ryegrass, Italian (Italian ryegrass, Lolium multiflorum). As to the kind of experiment: Test A preemergence. Conditions: Lolium multiflorum, pre-emergence, 240 h; for pest or weed control at 125 g/ha: 125 g ai/ha; for pest or weed control at 500 g/ha: 500 g ai/ha. The method in brief: as §1
In assay [3] the test system is barnyardgrass (Echinochloa crus-galli). As to the kind of experiment: Test A preemergence. Conditions: Echinochloa crus-galli, pre-emergence, 240 h; for pest or weed control at 125 g/ha: 125 g ai/ha; for pest or weed control at 500 g/ha: 500 g ai/ha, visual injury rating about 10 d after treatment, 0 to 100 scale (0 no effect, 100 complete control). The method, boiled down: as §1

In assay [4] the test system is ragweed (common ragweed, Ambrosia elatior). As to the kind of experiment: Test A preemergence. Conditions: Ambrosia artemisiifolia, pre-emergence, 240 h; for pest or weed control at 125 g/ha: 125 g ai/ha; for pest or weed control at 500 g/ha: 500 g ai/ha. The method in brief:
as §1

The subject of assay [5] is giant foxtail (Setaria faberii). As to the kind of experiment: Test A preemergence. Conditions: Setaria faberi, pre-emergence, 240 h; for pest or weed control at 125 g/ha: 125 g ai/ha; for pest or weed control at 500 g/ha: 500 g ai/ha. The method, boiled down: as §1
The test system of assay [6] is ducksalad (Heteranthera limosa). Nature of the assay: Test B flooded paddy test. Conditions: Heteranthera limosa, 250 g ai/ha, Flood, read-out: Ducksalad plant response rating. The method, boiled down: (§2)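 Rating scale 0–100 (visual, vs untreated controls) after a 13–15 d greenhouse period; application to the flood layer, 3 cm above soil and maintained; plants at 2-leaf stage when treated.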

The subject of assay [7] is sedge, umbrella (small-flower umbrella sedge, Cyperus difformis). As to the kind of experiment: Test B flooded paddy test. Conditions: Cyperus difformis, 250 g ai/ha, Flood, read-out: Sedge, Umbrella plant response rating. The method in brief:
as §2

The test system of the next assay is rice (Oryra sativa). As to the kind of experiment: Test B flooded paddy test. Conditions: Oryza sativa, 250 g ai/ha, Flood, read-out: Rice plant response rating. The method, boiled down:
as §2

Assay [8] has as its system barnyardgrass (Echinochloa crus-galli). Nature of the assay: Test B flooded paddy test. Conditions: Echinochloa crus-galli, 250 g ai/ha, Flood, read-out: Barnyardgrass plant response rating. The method, boiled down:
as §2

In assay [9] the test system is Galium (catchweed bedstraw, Galium aparine). As to the kind of experiment: Test A postemergence. Conditions: Galium, post-emergence, 240 h; for pest or weed control at 125 g/ha: 125 g ai/ha. The method, boiled down:
as §1

In assay [10] the test system is barnyardgrass (Echinochloa crus-galli). Nature of the assay: Test A postemergence. Conditions: Echinochloa crus-galli, post-emergence, 240 h; for pest or weed control at 125 g/ha: 125 g ai/ha. The method in brief:
as §1

Assay [11] concerns ragweed (common ragweed, Ambrosia elatior). As to the kind of experiment: Test A postemergence. Conditions: Ambrosia artemisiifolia, post-emergence, 240 h; for pest or weed control at 125 g/ha: 125 g ai/ha. The method, boiled down: as §1
Another assay concerns corn (Zea mays). Nature of the assay: Test A postemergence. Conditions: Zea mays, post-emergence, 240 h. The method in brief:
as §1

Setting [12] is: preemergence, read-out: Barnyardgrass plant response rating.
[13] abbreviates: 0 to 100 scale where 0 is no effect and 100 is complete control.
Setting [14] is: scale of 0 to 100 where 0 is no effect and 100 is complete control.

Take `Cc1cc([C@H]2CN(C)C(=O)[C@@H]2C(=O)Nc2ccccc2S(C)(=O)=O)ccc1Br` [Compound 1102]: the pest or weed control at 125 g/ha in [1] (preemergence, 0 to 100 scale where 0 is no effect and 100 is complete control, approx. 10 d, read-out: Pigweed plant response rating) is 20%; with Kochia (Kochia scoparia) (preemergence, 0 to 100 scale where 0 is no effect and 100 is complete control, approx. 10 d, read-out: Kochia plant response rating) it was 20%; in assay [2] (preemergence, 0 to 100 scale where 0 is no effect and 100 is complete control, approx. 10 d, read-out: Ryegrass, Italian plant response rating), 30%; in assay [3] (preemergence, 0 to 100 scale where 0 is no effect and 100 is complete control, approx. 10 d, read-out: Barnyardgrass plant response rating), 90%; in [4] (preemergence, 0 to 100 scale where 0 is no effect and 100 is complete control, approx. 10 d, read-out: Ragweed plant response rating), 0%; in assay [5] (preemergence, 0 to 100 scale where 0 is no effect and 100 is complete control, approx. 10 d, read-out: Foxtail, Giant plant response rating), 90%. For the same compound, the pest or weed control at 125 g/ha in assay [9] (postemergence, visual injury on 0 to 100 scale (0 no effect, 100 complete control), approx. 10 d, read-out: Galium plant response rating) came to 0%; in assay [10] (postemergence, visual injury on 0 to 100 scale (0 no effect, 100 complete control), approx. 10 d, read-out: Barnyardgrass plant response rating), 80%; in assay [11] (postemergence, visual injury on 0 to 100 scale (0 no effect, 100 complete control), approx. 10 d, read-out: Ragweed plant response rating) it was 0%. The pest or weed control at 500 g/ha in assay [1] (preemergence, 0 to 100 scale where 0 is no effect and 100 is complete control, read-out: Pigweed plant response rating) worked out at 50%; in the assay with Kochia (Kochia scoparia) (preemergence, 0 to 100 scale where 0 is no effect and 100 is complete control, read-out: Kochia plant response rating) it was 70%; in [2] (preemergence, 0 to 100 scale where 0 is no effect and 100 is complete control, read-out: Ryegrass, Italian plant response rating) it was 60%; in [3] (setting [12]), 90%; in [4] (preemergence, 0 to 100 scale where 0 is no effect and 100 is complete control, read-out: Ragweed plant response rating), 50%; in assay [5] (preemergence, 0 to 100 scale where 0 is no effect and 100 is complete control, read-out: Foxtail, Giant plant response rating) it was 90%. Also, the pest or weed control at 500 g/ha in assay [9] (500 g ai/ha, postemergence, 0 to 100 scale, 0 is no effect, 100 is complete control, read-out: Galium plant response rating) turned out to be 30%; in assay [10] (500 g ai/ha, postemergence, 0 to 100 scale, 0 is no effect, 100 is complete control, read-out: Barnyardgrass plant response rating) it was 80%; in [11] (500 g ai/ha, postemergence, 0 to 100 scale, 0 is no effect, 100 is complete control, read-out: Ragweed plant response rating), 20%. Also, the pest or weed control at 250 g/ha stood at 85% in assay [6] (setting [13]), 0% in assay [7] (setting [13]), 0% with rice (Oryra sativa) (setting [13]) and 60% in assay [8] (setting [13]). In addition, the plant injury at 125 g/ha in the assay with corn (Zea mays) (125 g ai/ha, postemergence, visual injury on 0 to 100 scale (0 no effect, 100 complete control), approx. 10 d, read-out: Corn plant response rating) came to 20%. The plant injury at 500 g/ha with corn (Zea mays) (500 g ai/ha, postemergence, 0 to 100 scale, 0 is no effect, 100 is complete control, read-out: Corn plant response rating) came to 60%.

As for `Cc1ccc([C@H]2CNC(=S)[C@@H]2C(=O)Nc2ccccc2F)cc1` (racemic) [Compound 945], the pest or weed control at 125 g/ha was 0% in [1] (Preemergence, visual injury rating after approximately 10 d, read-out: Pigweed plant response rating (0 to 100 scale, 0 is no effect, 100 is complete control)); 0% with Kochia (Kochia scoparia) (Preemergence, visual injury rating after approximately 10 d, read-out: Kochia plant response rating (0 to 100 scale, 0 is no effect, 100 is complete control)); 0% in [2] (Preemergence, visual injury rating after approximately 10 d, read-out: Ryegrass, Italian plant response rating (0 to 100 scale, 0 is no effect, 100 is complete control)); 60% in [3] (Preemergence, visual injury rating after approximately 10 d, read-out: Barnyardgrass plant response rating (0 to 100 scale, 0 is no effect, 100 is complete control)); 0% in [4] (Preemergence, visual injury rating after approximately 10 d, read-out: Ragweed plant response rating (0 to 100 scale, 0 is no effect, 100 is complete control)); 0% in assay [5] (Preemergence, visual injury rating after approximately 10 d, read-out: Foxtail, Giant plant response rating (0 to 100 scale, 0 is no effect, 100 is complete control)). The pest or weed control at 125 g/ha in assay [9] (Postemergence, visual injury after approximately 10 d, 0 to 100 scale where 0 is no effect and 100 is complete control, read-out: Plant response rating, Galium) was 20%; in [10] (Postemergence, visual injury after approximately 10 d, 0 to 100 scale where 0 is no effect and 100 is complete control, read-out: Plant response rating, Barnyardgrass) it was 80%; in assay [11] (Postemergence, visual injury after approximately 10 d, 0 to 100 scale where 0 is no effect and 100 is complete control, read-out: Plant response rating, Ragweed), 0%. Further, the pest or weed control at 500 g/ha in assay [1] (preemergence, visual injury rating about 10 d after treatment, 0 to 100 scale (0 no effect, 100 complete control), read-out: Pigweed plant response rating) worked out at 0%; in the assay with Kochia (Kochia scoparia) (preemergence, visual injury rating about 10 d after treatment, 0 to 100 scale (0 no effect, 100 complete control), read-out: Kochia plant response rating), 0%; in assay [2] (preemergence, visual injury rating about 10 d after treatment, 0 to 100 scale (0 no effect, 100 complete control), read-out: Ryegrass, Italian plant response rating) it was 0%; in assay [3] (setting [12]), 90%; in [4] (preemergence, visual injury rating about 10 d after treatment, 0 to 100 scale (0 no effect, 100 complete control), read-out: Ragweed plant response rating), 0%; in assay [5] (preemergence, visual injury rating about 10 d after treatment, 0 to 100 scale (0 no effect, 100 complete control), read-out: Foxtail, Giant plant response rating) it was 70%. Besides, the pest or weed control at 250 g/ha in assay [6] (setting [14]) came to 85%; in [7] (setting [14]), 0%; with rice (Oryra sativa) (setting [14]), 0%; in [8] (setting [14]), 0%. Also, in the assay on corn (Zea mays) (125 g ai/ha, Postemergence, visual injury after approximately 10 d, 0 to 100 scale where 0 is no effect and 100 is complete control), the Corn plant response rating (crop injury, 0 = no effect, 100 = complete kill) at 125 g/ha came out at 0%.
